Values quoted from earlier work in patent US20160231323A1, “PROTECTION OF TCR SIGNALING CHAINS IN CANCER PATIENTS AND ENHANCEMENT OF CAR-T CELL THERAPY” (Batu Biologics, Inc., priority 2015, published 2016).

Legend:
PGE 2 = conditions: several animal models
[1] = system: markers of oxidative stress; conditions: smokers
Kaposi Sarcoma = conditions: oral administration
[2] = system: constitutively activated neutrophils
[3] = system: sepsis-induced immune suppression; conditions: animals undergoing experimental sepsis
TCR-ζ = conditions: addition to co-incubation of cancer patient neutrophils with healthy lymphocytes
[4] = system: IFN-[…] and IL-2 production; conditions: daily dose of 750 mg for 2 weeks, Duke's C and D colorectal cancer
[5] = system: CD8(+) effector and effector memory T cells; conditions: mice given vitamin C treated DC loaded with tumor lysate
tumors = conditions: paradoxical oxidative mechanism
HIF-1 alpha = conditions: results in suppressed angiogenic activity
plasma CRP = conditions: 1000 mg/day for 2 months, healthy nonsmokers, versus vitamin E or placebo
[6] = system: proliferating tumor endothelial cells

Question: With COc1ccc2c(c1)c(CC(=O)O)c(C)n2C(=O)c1ccc(Cl)cc1 [indomethacin] as the compound, how does the metastatic progression (PGE 2) read?
Answer: significantly impedes metastatic progession

Question: With CC(=O)N[C@@H](CS)C(=O)O [n-acetylcysteine] as the compound, how does the “markers of oxidative stress” value [1] read?
Answer: suppression of markers of oxidative stress

Question: What about the angiogenesis (Kaposi Sarcoma) of the same compound?
Answer: blocks angiogenesis

Question: And the “growth of Kaposi Sarcoma” value (Kaposi Sarcoma)?
Answer: suppresses growth of Kaposi Sarcoma

Question: And the “clinical effect in sepsis” value ([2]; as a monotherapy)?
Answer: little clinical effect

Question: And the “constitutively activated neutrophils in sepsis patients” value ([2]; therapeutic administration)?
Answer: suppression of the constitutively activated neutrophils

Question: What about the “immune suppression in experimental sepsis” value [3] of the same compound?
Answer: blocked immune suppression

Question: Which TCR-ζ downregulation (TCR-ζ) does the source give for catalase here?
Answer: suppressed TCR-ζ downregulation

Question: For vitamin E, which “IFN-[…] and IL-2 production” value [4] is on record?
Answer: restoration of IFN-[…] and IL-2 production

Question: With O=C1O[C@H]([C@@H](O)CO)C(O)=C1O [ascorbic acid] as the compound, how does the “frequency of effector and effector memory T cells” value ([5]; versus control DC) read?
Answer: higher frequency

Question: What about the “ex vivo killing of tumor cells by the T cells” value ([5]; versus controls) of the same compound?
Answer: increased ex vivo killing effect

Question: And the effect on tumors (tumors)?
Answer: direct killing effect

Question: And the “tumor expression of HIF-1 alpha” value (HIF-1 alpha)?
Answer: reduce tumor expression of HIF-1 alpha

Question: And the “plasma CRP levels” value (plasma CRP)?
Answer: statistically significant decrease

Question: And the “effect on proliferating tumor endothelial cells” value [6]?
Answer: Direct suppression

Question: What about the “immune suppression in experimental sepsis” value [3] of the same compound?
Answer: blocked immune suppression
